{
  "source": "ChEMBL document CHEMBL3832075",
  "about": "“DailyMed|setid=ff7c9b1c-4192-4d09-a2ab-b80ec14cd424 | PENTOXIL- pentoxifylline tablet, film coated, extended release|UPSHER-SMITH LABORATORIES, INC”",
  "key": {"[1]": {"experiment": "(§1) Pharmacokinetic parameters for Pentoxifylline evaluated after oral administration of Pentoxifylline tablet and in aqueous solution.", "format": "ADME, organism-based", "details": "human, in vivo, dosed compound id 54, dosed compound name PENTOXIFYLLINE, tissue Plasma"}, "Homo sapiens": {"tested_on": "Homo sapiens", "experiment": "as §1", "format": "ADME, organism-based", "details": "in vivo, po, dose 400 mg, dosed compound id 54, dosed compound name PENTOXIFYLLINE, tissue Plasma"}},
  "data": [
    {"smiles": "CC(=O)CCCCn1c(=O)c2c(ncn2C)n(C)c1=O", "note": "[PENTOXIFYLLINE]", "values": [
      {"measurement": "half-life", "setting": "[1]; dose 100 to 400 mg", "value": "0.4 to 0.8", "unit": "h"},
      {"measurement": "Tmax", "setting": "[1]", "value": 1, "unit": "h"},
      {"measurement": "Tmax", "setting": "Homo sapiens", "value": "2 to 4", "unit": "h"}
    ]}
  ]
}
